Experiments:
[1] = Stability in aqueous solution, pH 7.4; assay type: physicochemical; conditions: for half-life: pH 7.4, read-out: Stability pH 7.4 T1/2; for stability in aqueous solution: result in words
Procedure: Compounds 2d, 2e, 2f, 2g, 2j, 2aa, 5a, 5d, 5e, 5f, 5ab and 6b were subjected to in vitro DMPK testing. […] The other three (2d, 2j and 2aa) were not retained for further investigation due to poor stability (T1/2 at pH 7.4: 13, 107 and 76 min, Table 1, entries 1, 3 and 4 respectively). One obvious aspect contributing to observed stability is the propensity for PTL derivatives of this type to undergo a retro-amination (reverse-Michael-type mechanism), indeed this reverse reaction is often claimed as a pro-drug mode of action.[29a],[33] […] It is a reasonable assertion that activity observed for these unstable compounds could well be ascribed to free PTL generated rapidly in the assay.

MEC1 CLL cell line [2] = assay: alamarBlue assay, in vitro antileukaemic activity against MEC1 CLL cell line; assay type: cell-based
Text: Defective p53-signalling increases genomic instability and drives tumour progression. A high frequency of p53 inactivation is found in relapsed, treatment-resistant, high risk CLL.[30] […] Owing to resource availability a subset of up to ten of these compounds was prioritised for further investigation. Compounds 2d, 2e, 2j, 2aa, 5a, 5d, 5e, 5f, 5ab and 6b were selected on the basis of reasons including ease of synthetic access, diversity across the chemical space probed and novelty. Those prepared under conditions (i)Scheme 1 (2d, 5a and 6b) were available on a scale and in a purity to directly permit follow-up studies, whereas compounds prepared under conditions (ii)Scheme 1 were prepared on a small scale so were resynthesised. These seven compounds (2e, 2j, 2aa, 5d, 5e, 5f and 5ab) were isolated on >30 mg scale in high purity and progressed to more following studies.
Following the identification of 5f as the most promising drug-like derivative of PTL from the aforementioned parallel/high-throughput screening, the anti-leukaemic activity of 5f was tested once more and compared directly with that of PTL (1) and DMAPT (2a), which serve as comparators and positive controls.
Amine 7 was successfully prepared as follows: 4-Piperidinecarboxylic acid was N-Boc protected to deliver 8 in 92% yield.[43] In order to confidently assign the NMR spectra of compound 8 J-MOD, HSQC and ^1H–^1H COSY were helpful, particularly in establishing that a broad resonance in the proton-decoupled ^13C NMR spectrum, centred on 42.8 ppm, corresponds to the ring-carbons bonded to nitrogen. The carboxylic acid of 8 was converted to the corresponding ethyl-3-keto-propanoate 9 in 24% yield. Conversion of 9 to the N-Boc protected congener 10, was achieved by treatment with acetamidine hydrochloride and potassium carbonate, furnishing 10 in 77% yield. Treatment with trifluoroacetic acid delivered desired compound 7 in 99% yield for the Boc-deprotection step (scale 200 mg, 17% over four linear steps). Thus, evidencing accessibility of amine 7 and with it in hand, it was timely to probe any activity arising from the amine alone. MEC1 sensitivity to 1, 5f and 7 was compared in parallel using the alamarBlue® assay (Fig. 6). […] A pre-peer-reviewed preprint of this article was deposited and may be viewed elsewhere.[44]

[3] = Microsomal stability assay (mouse); conditions: mouse, liver microsomes
MEC1 CLL cell line [4] = assay: cells; set-up: alamarBlue (resazurin reduction) viability assay in MEC1 CLL cells; conditions: Homo sapiens, MEC1, 24 h; read-out: alamarBlue EC50 (uM) average
Text: Defective p53-signalling increases genomic instability and drives tumour progression. A high frequency of p53 inactivation is found in relapsed, treatment-resistant, high risk CLL.[30] […] Owing to resource availability a subset of up to ten of these compounds was prioritised for further investigation. Compounds 2d, 2e, 2j, 2aa, 5a, 5d, 5e, 5f, 5ab and 6b were selected on the basis of reasons including ease of synthetic access, diversity across the chemical space probed and novelty. Those prepared under conditions (i)Scheme 1 (2d, 5a and 6b) were available on a scale and in a purity to directly permit follow-up studies, whereas compounds prepared under conditions (ii)Scheme 1 were prepared on a small scale so were resynthesised. These seven compounds (2e, 2j, 2aa, 5d, 5e, 5f and 5ab) were isolated on >30 mg scale in high purity and progressed to more following studies. Biological efforts at Sygnature Discovery (where differing to University of Birmingham) MEC1 cells were obtained from the American Type Culture Collection (Manassas, VA 20110 USA) and were routinely cultured in RPMI 1640 medium (Sigma-Aldrich) supplemented with 1% L-glutamine (Sigma-Aldrich), 1% Penicillin/Streptomycin (Sigma-Aldrich) and 10% FBS (Gibco). The MEC1 proliferation assay was conducted by performing a re-feed of the MEC1 cells 24 h prior to cell seeding. On the day of the assay, cells were seeded into a 384-well assay plate at a density of 12,500 cells/well in 25 μL of complete MEC1 medium. Compound treatment was performed on the day of cell seeding, with compounds prepared as duplicate compound response curves (final DMSO concentration of 0.6%). Post compound treatment, MEC1 assay plates were returned to a 37 °C/5% CO2 incubator for 24 h of incubation. Following compound treatment, cellular viability was determined by measuring reduction of alamarBlue® reagent (Invitrogen). alamarBlue® reagent (2.5 μL) was added to each assay well to give a 1:10 dilution of the neat stock and assay plates were incubated for 3 h at 37 °C/5% CO2. Reduction of alamarBlue® was determined using an Envision Xcite plate reader (Perkin Elmer) with an excitation wavelength of 560 nm set and an emission wavelength of 590 nm set. Cell viability was determined by normalising raw fluorescent data to a cell only high control and Parthenolide treated low control to provide percentage viability readout. Data was plotted and EC50 values extracted and reported EC50s represent an average of at least two independent assays.

[5] = Caco-2 permeability assay; assay type: in vitro ADME; conditions: human, Caco-2, pH 7.4
[6] = MEC1 cell line, alamarBlue assay, library screen, read-out: EC50 ave.
[7] = Homo sapiens, MEC1, MEC1 cell line, alamarBlue assay, library screen, read-out: EC50 ave.

Row | Structure (SMILES) | half-life [1] [h] | EC50 (MEC1 CLL cell line [2]; [6]) [µM] | stability in aqueous solution [1] | microsomal CLint [3] [µL/min/mg] | EC50 (MEC1 CLL cell line [2]; [7]) [µM] | EC50 (MEC1 CLL cell line [4]) [µM] | also measured
1 | C/C1=C\CC[C@@]2(C)O[C@@H]2[C@H]2OC(=O)[C@@H](CN(C)CCc3ccccc3)[C@@H]2CC1 [Compound 2aa] | 1.27 | < 15 | – | – | – | – | –
2 | CCN(CCO)C[C@@H]1C(=O)O[C@H]2[C@H]1CC/C(C)=C/CC[C@@]1(C)O[C@H]21 [Compound 2d] | 0.217 | < 15 | – | – | – | – | –
3 | CCn1cc(CN(C[C@@H]2C(=O)O[C@H]3[C@H]2CC/C(C)=C/CC[C@@]2(C)O[C@H]32)C(C)C)cn1 [Compound 2e] | – | < 15 | greater than two hours | > 100 | – | – | –
4 | C/C1=C\CC[C@@]2(C)O[C@@H]2[C@H]2OC(=O)[C@@H](CN(CCO)C3CCCCC3)[C@@H]2CC1 [Compound 2g] | – | – | – | – | < 15 | 10 | –
5 | COc1ccc(CN(C)C[C@@H]2C(=O)O[C@H]3[C@H]2CC/C(C)=C/CC[C@@]2(C)O[C@H]32)cc1OC [Compound 2j] | 1.78 | < 15 | – | – | – | 9.7 | –
6 | C/C1=C\CC[C@@]2(C)O[C@@H]2[C@H]2OC(=O)[C@@H](CN3CCC(OCc4cccnc4)CC3)[C@@H]2CC1 [Compound 5ab] | – | – | greater than two hours | > 100 | < 15 | – | –
7 | CC1=CCCC2(C)OC2C2OC(=O)C(CN3CCCCC3)C2CC1 (centres unmarked) [Compound 5b] | – | – | greater than two hours | – | – | – | EC50 (MEC1 CLL cell line [2]; Homo sapiens, MEC1, read-out: EC50 ave., MEC1 cell line, alamarBlue assay, library screen): < 15 µM
8 | C/C1=C\CC[C@@]2(C)O[C@@H]2[C@H]2OC(=O)[C@@H](CN3CCC(Oc4cccnc4)CC3)[C@@H]2CC1 [Compound 5d] | – | < 15 | greater than two hours | > 100 | – | – | –
9 | C/C1=C\CC[C@@]2(C)O[C@@H]2[C@H]2OC(=O)[C@@H](CN3CCC(c4ccc(C(N)=O)cc4)CC3)[C@@H]2CC1 [Compound 5h] | – | – | – | – | < 15 | 13.8 | –
10 | C/C1=C\CC[C@@]2(C)O[C@@H]2[C@H]2OC(=O)[C@@H](CN[C@@H](Cc3ccccc3)C(=O)O)[C@@H]2CC1 [Compound 6b] | – | – | greater than two hours | 9 | < 15 | – | efflux ratio [5]: 2.7
